Where two headings read alike, the source gives them in different places.
Assays:
[1] = test system: xylene-induced ear swelling in mice; assay: Effect on xylene-induced ear swelling in mice; format: in vivo, Kunming male mice; conditions: Aspirin 0.2 g/kg i.g. q.d. 3 days; weight of right minus left ear piece; n=10
Description: Sixty Kunming male mice of Grade II with the mean body weight of 19.77 ± 0.91 g, provided by the breeding farm of the Institute of Laboratory Animal Science, Chinese Academy of Medical Sciences, License number: SCXK (Jing) 2000-0006. • (1) The present medication to be tested, 6.25 g crude drugs/g, provided by […] Pharmaceutical Co. […] SFDA Approval No. Z-11; Lot number of the product: 060112; valid until December 2007. • (3) Aspirin enteric-coated tablet as a western medicine control, 0.3 g/tablet, produced by Yantai the Second Pharmaceutical Factory), lot number: 011102. The above-described medications were formulated with distilled water into the required concentrations in the experiment. Sixty healthy mice were randomly assigned into the following six groups with 10 animals per group: […] (2) the Aspirin group (0.2 g/kg); (3) the […] group (2 g crude drugs/kg); (4) the low dosage group of the present medication (L-dosage group, 3g crude drugs/kg); (5) the medium dosage group of the present medication (M-dosage group, 6g crude drugs/kg); (6)the high dosage group of the present medication (H-dosage group, 12g crude drugs/kg). […] Fifteen minutes later, the animal was sacrificed by dislocation. […] The degree of ear swelling for each mouse was calculated by subtraction of the weight of the left piece from that of the right piece. […]

[2] = test system: tampon-induced granuloma in rats; assay: Effect on small tampon-induced granuloma in rats; format: in vivo; conditions: Aspirin 0.15 g/kg i.g. q.d. 7 days; n=10
Description: Sixty Wistar […] of Grade II evenly composed of males and females with the mean body weight of 132.37 ± 6.31 g, provided by the breeding farm of the Institute of Laboratory Animal Science, Chinese […] of Medical Sciences, and License number: SCXK (Jing) 2000-0006. • (1) The present medication to be tested, 6.25 g crude drugs/g, provided by […] Pharmaceutical Co. […] No. Z-11; Lot number: 060112. • (3) Aspirin Enteric-coated Tablet as a western medicine control, 0.3 g/tablet, produced by Yantai the Second Pharmaceutical Factory), lot number: 051102. The medication was prepared to required concentrations with distilled water in the experiment. • (4) Ampicillin Sodium Injection (ASI), 0.5 g/bottle, Produced by North China Pharmaceutical Co., Ltd. lot number: F0111207. […] The average wet and dry weights of the post-inflammation granuloma for each of the groups were calculated, from which the original weight of the cotton ball had been subtracted, and were compared among the groups by t-test.

[3] = test system: carrageenan-induced swelling of rat's footpad; assay: Effect on carrageenan-induced swelling of rat's footpad; format: in vivo, Wistar male rats; conditions: for Foot volume after inflammation / Foot volume, Difference / Swelling rate / inhibition at 150 mg/kg: Aspirin 0.15 g/kg i.g. q.d. 3 days; for inhibition at 150 mg/kg: Rattus norvegicus, po, read-out: Inhibition rate
Method: • (1) The present medication to be tested, 6.25g crude drugs/g, provided by […] Pharmaceutical Co. […] SFDA Approval No. Z-11; […] The above-described medications were prepared into the required concentrations with distilled water in the experiment. • (4) Carrageenan, from SIGMA, lot number: 117H0151, prepared into required concentrations for the experiment. Sixty while Wistar male rats of Grade I with the mean body weight of 157.05 ± 8.49 g, provided by Institute of Laboratory Animal Science, Chinese Academy of Medical Sciences, License number: […] The sixty healthy rats were randomly assigned into the following six groups: (1) the blank control group administered with distilled water (10 ml/kg); […] (3) the […] group (1.5 g crude drugs/kg); (4) the low dosage group of the present medication (L-dosage group, 2 g crude drugs/kg); (5) the medium dosage group of the present medication (M-dosage group, 4 g crude drugs/kg); (6)the high dosage group of the present medication (H-dosage group, 8 g crude drugs/kg). The volume of the left hind foot of each animal determined by capillary amplification method was used as the value prior to administration. […] Comparisons among the groups were performed on the difference between the left foot volumes before and after inflammation by t-test.

SMILES: CC(=O)Oc1ccccc1C(=O)O [Aspirin]
- Swelling rate [1]: 3.50 ± 0.71 mg
- Dry weight of granuloma [2]: 99.20 ± 10.16 mg
- Wet weight of granuloma [2]: 457.85 ± 50.01 mg
- Foot volume after inflammation ([3]; 0.5h): 1.19 ± 0.04 mL
- Foot volume, Difference ([3]; 0.5h): 0.21 ± 0.05 mL
- Swelling rate ([3]; 0.5h): 21.4±5.49 %
- Foot volume after inflammation ([3]; 1h): 1.23 ± 0.04 mL
- Foot volume, Difference ([3]; 1h): 0.25 ± 0.03 mL
- Swelling rate ([3]; 1h): 25.4±3.87 %
- Foot volume after inflammation ([3]; 2h): 1.27 ± 0.02 mL
- Foot volume, Difference ([3]; 2h): 0.29 ± 0.03 mL
- Swelling rate ([3]; 2h): 29.7±4.00 %
- Foot volume after inflammation ([3]; 4h): 1.30 ± 0.04 mL
- Foot volume, Difference ([3]; 4h): 0.32 ± 0.04 mL
- Swelling rate ([3]; 4h): 32.80±4.78 %
- Foot volume after inflammation ([3]; 6h): 1.24 ± 0.03 mL
- Foot volume, Difference ([3]; 6h): 0.26 ± 0.04 mL
- Swelling rate ([3]; 6h): 26.26±3.95 %
- Foot volume before inflammation ([3]; Aspirin group 0.15 g/kg, baseline, n=10): 0.98 ± 0.03 mL
- inhibition at 150 mg/kg ([3]; 0.5h): 41.5%
- inhibition at 150 mg/kg ([3]; 1h): 41.2%
- inhibition at 150 mg/kg ([3]; 2h): 38.6%
- inhibition at 150 mg/kg ([3]; 4h): 32.1%
- inhibition at 150 mg/kg ([3]; 6h): 45.6%

— EP2450046B1, “A MEDICINAL COMPOSITION FOR THE TREATMENT OF BRONCHITIS AND PREPARATION THEREOF” (Hebei Yiling Medicine Research Institute Co., Ltd., priority 2009, dated 2011)
